Test results from PubChem BioAssay (NCI).
Values joined by “and” are separate entries in the source; they are usually repeats but may differ in a detail not shown here. Equal entries are not always repeated.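 In this assay, cells in 96-well plates receive the compound at five concentrations for 48 hours. Endpoints are linearly interpolated between the surrounding concentrations. GI50: concentration for 50% inhibition of growth. At the TGI there is no net growth.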

Key:
Experiment in all cases: growth of human tumour cells (NCI), 48 h
[1] = system: SW-620 colon
[2] = system: U251 CNS
[3] = system: MOLT-4 leukemia
[4] = system: HCT-15 colon
[5] = system: NCI-H23 lung
[6] = system: ACHN renal
[7] = system: OVCAR-8 ovarian
[8] = system: HOP-18 NSCLC
[9] = system: DMS 114 small cell lung
[10] = system: NCI/ADR-RES ovarian

SMILES | TGI [1] | TGI [2] | TGI [3] | TGI [4] | TGI [5] | TGI [6] | TGI [7] | TGI [8] | TGI [9] | TGI [10] | GI50 [1] | GI50 [2] | GI50 [3] | GI50 [4] | GI50 [5] | GI50 [6] | GI50 [7] | GI50 [10] | GI50 [8] | GI50 [9]
N/C(=N\NS(=O)(=O)c1ccccc1)Oc1ccc(Br)cc1Br | 24.3 µM | > 100 µM | > 100 µM | > 100 µM | > 100 µM | > 100 µM | > 100 µM | > 100 µM | > 100 µM | – | – | – | – | – | – | – | – | – | – | –
C[Si](C)(C)C(CCCCSc1ccccc1)(Sc1ccccc1)Sc1ccccc1 | > 100 µM | > 100 µM | > 100 µM | > 100 µM | > 100 µM | > 100 µM | > 100 µM | – | > 100 µM | – | – | – | – | – | – | – | – | – | – | –
Cc1c(C(=O)/C=C/C=C/c2ccccc2)[n+](=O)c2ccccc2n1[O-] | > 100 µM | > 100 µM | > 100 µM | 36.9 µM | 51.4 µM | 60.8 µM | > 100 µM | > 100 µM | > 100 µM | – | – | – | – | – | – | – | – | – | – | –
O=C(O)c1cc(=O)c2c([nH]c3ccccc32)s1 | > 100 µM | – | > 100 µM | > 100 µM | > 100 µM | > 100 µM | > 100 µM | – | > 100 µM | – | – | – | – | – | – | – | – | – | – | –
COC(=O)C1=C(CS(=O)c2ccc([N+](=O)[O-])cc2[N+](=O)[O-])C2C=CC1C2 (centres undefined) | 28.6 µM | 49.4 µM | 59.8 µM | 29.1 µM | 98.9 µM | 39.5 µM | 80.9 µM | > 100 µM | 49.5 µM | – | – | – | – | – | – | – | – | – | – | –
O=C1OC(c2ccccc2)=N/C1=C\c1ccc(Oc2ccc(Cl)c(Cl)c2)cc1 | > 100 µM | 65.9 µM | 60.6 µM | > 100 µM | > 100 µM | > 100 µM | 46 µM | > 100 µM | 35.6 µM | – | – | – | – | – | – | – | – | – | – | –
Cc1cc(NC(=O)C2C3C=CC(O3)C2C(=O)O)no1 (centres undefined) | 5.92 µM | 53.8 µM | > 100 µM | 37.4 µM | > 100 µM | > 100 µM | 32.6 µM | > 100 µM | 29.9 µM | – | – | – | – | – | – | – | – | – | – | –
NNc1cnn(-c2ccccc2)c(=O)c1Cl | > 100 µM | > 100 µM | > 100 µM | > 100 µM | > 100 µM | > 100 µM | > 100 µM | > 100 µM | > 100 µM | – | – | – | – | – | – | – | – | – | – | –
CN(C)c1nc(=NCc2ccco2)ss1 | 61.9 µM | 67.5 µM | 44.8 µM | 49.9 µM | 58 µM | 45 µM | 62.4 µM | > 100 µM | – | > 100 µM | – | – | – | – | – | – | – | – | – | –
Cc1ccc(S(=O)(=O)N=NC=C2c3ccccc3N(O)c3ccccc32)cc1 | 14.7 µM | 13.1 µM | 4.11 µM | 3.63 µM | 19.3 µM | 9.43 µM | 14.7 µM | 20.8 µM | 10.8 µM | – | – | – | – | – | – | – | – | – | – | –
O=C(C#Cc1ccccc1)N1c2ccccc2CC1c1c[nH]c2ccccc12 (centres undefined) | 30.3 µM | 35.8 µM | 46.6 µM | 24.9 µM | 32.4 µM | 66 µM | 27.5 µM | – | 28.8 µM | – | – | – | – | – | – | – | – | – | – | –
CC1=C2C(=CC(C)(C)[C@@H]2O)C(=O)[C@](C)(O)C12CC2 | 0.0976 µM and 0.131 µM | – | 0.134 µM and < 0.0208 µM | – | 0.0607 µM and 0.0266 µM | 0.0625 µM and 0.114 µM | 0.182 µM and 1.29 µM | 0.0865 µM | 0.101 µM | 0.104 µM and 0.0155 µM | 0.00597 µM and 0.0168 µM | 0.0169 µM | 0.0137 µM | 0.00514 µM | 0.0157 µM | 0.00796 µM | 0.0294 µM | 0.0223 µM | – | –
CCOC(=O)CN(Cn1cncn1)Cn1cncn1 | 60 µM | 33.7 µM | > 100 µM | 47.2 µM | – | > 100 µM | 58.8 µM | > 100 µM | – | – | – | – | – | – | – | – | – | – | – | –
CCc1cccc(C)c1NC(=O)CCc1nnc2s/c(=C\c3cccc4ccccc34)c(=O)n12 | > 100 µM | > 100 µM | > 100 µM | > 100 µM | > 100 µM | > 100 µM | > 100 µM | – | > 100 µM | – | – | – | – | – | – | – | – | – | – | –
CC(=O)NC(CCCCN)C(=O)NCc1ccccc1 (centres undefined) | > 100 µM | > 100 µM | > 100 µM | > 100 µM | > 100 µM | > 100 µM | > 100 µM | – | > 100 µM | – | – | – | – | – | – | – | – | – | – | –
CC(C)(O)/C=C/C(=O)[C@](C)(O)[C@H]1[C@H](O)C[C@@]2(C)[C@@H]3CC=C4[C@@H](C[C@H](O)C(=O)C4(C)C)[C@]3(C)C(=O)C[C@]12C | 9.68 µM | 0.419 µM and 0.322 µM | 11.8 µM | – | 15.5 µM | 0.931 µM and 8.45 µM | 19.9 µM | 0.41 µM and 0.394 µM | 0.948 µM and 9.41 µM | – | 0.104 µM | 0.105 µM | 0.709 µM | 0.0862 µM and 0.159 µM | 0.462 µM | 0.197 µM and 1.28 µM | – | – | 0.0838 µM | 0.108 µM
COC(=O)CCC12CCC(=O)C1[C@@H](C(=O)OC)C[C@H]2C(=O)OC (some centres undefined) | > 100 µM | > 100 µM | > 100 µM | > 100 µM | > 100 µM | > 100 µM | > 100 µM | > 100 µM | > 100 µM | – | – | – | – | – | – | – | – | – | – | –
